Assay results published in patent US5668134A, “Method for preventing or reducing photosensitivity and/or phototoxicity reactions to medications” (priority 1994, dated 1997).
Counter-ions that a name gives are not always drawn.

Columns and labels:
Citrobacter diversus = assay: Activity in vitro and in clinical infections; format: cell-based
[1] = Pharmacokinetics in patients with cirrhosis; format: in vivo, human; settings: 12 patients with cirrhosis, 400 mg single dose
Haemophilus influenzae = assay: Activity in vitro and in clinical infections; format: cell-based
Enterobacter cloacae = assay: Activity in vitro and in clinical infections; format: cell-based
[2] = test system: Moraxella (Branhamella) catarrhalis; assay: Activity in vitro and in clinical infections; format: cell-based
[3] = test system: skin of healthy volunteers; settings: in vivo
Experimental: The number of skin patches with edema, or local swelling of the skin surface, were also counted. MEDs were measured separately for UVA and UVB radiation, and for UVA radiation alone. The baseline MED was defined in the manner described hereinabove. The 24 hour evaluation was allowed to be performed in the morning of Study Day 1. Severity of reactions causing edema and/or blisters were graded under the following grading system:
Severity was assessed by comparing the numbers of subjects with responses graded as 2 (edema) or 3 (blisters).

patients = assay: Example 3: multicenter comparative safety and efficacy study, photosensitivity; format: in vivo, human; settings: 400 mg x 7 days
Experimental: A double blind, randomized, parallel group, three-arm clinical study concerning the photosensitivity reactions caused by lomefloxacin HCl was the multicenter comparative safety and efficacy study which was conducted in Sweden. 400 mg of lomefloxacin HCl was given once a day (q.d.) for either three days or seven days. 703 patients were enrolled in this study, before newly-raised awareness of photosensitivity reactions associated with lomefloxacin HCl.
However, about one year into the study, on Feb. 2, 1989, a letter was sent out to each of the study investigators regarding the possible risks of lomefloxacin HCl photosensitivity reactions. This information was again communicated to the study investigators at an Investigator's Meeting which was held on Jun. 8, 1989. The above-describedwarnings to study investigators apparently may have not been shared with the patients taking part in the study because photosensitivity rates for this study were reported as for […] as 10% for lomefloxacin HCl 400 mg×7 days.

[4] = test system: skin of healthy volunteers; settings: in vivo; remark: listed apart in the source
Source text: (§1) The relationship between plasma concentration at time of irradiation and delayed MEDUVA was explored using regression analysis by testing the equality of the slopes of the regression of delayed MEDUVA on plasma concentration, obtaining estimates of the parameters of the regression line, and determining the correlation coefficient.

[5] = test system: gram-negative and gram-positive organisms; assay: Bactericidal activity in vitro, MBC relative to MIC; format: cell-based
[6] = Solubility of lomefloxacin HCl in urine; format: physicochemical; settings: human
Experimental: Following a single 400 mg dose of lomefloxacin HCl, the solubility of lomefloxacin HCl in urine usually exceeded its peak urinary concentration 2 to 6 fold.

[7] = test system: skin of healthy volunteers; assay: Example 5: regression of delayed MEDUVA on plasma concentration
Source text: as §1

healthy male volunteers = settings: lomefloxacin 400 mg BID, ciprofloxacin 750 mg BID, 14 days, UVA and UVA/UVB
Experimental: This study was a single center, open label, multiple does, parallel, randomized study in healthy male volunteers.
Drug administration began on day three. Single dermatological sites were chosen on each of the subjects to be the site which was to be evaluated over time. Twenty joules of radiation were administered to these sites on day 1, day 6 and day 16. Also, graded UVA-UVB exposure was performed on days 2, 7 and 16. The dermatological responses were scored at 1, 24 and 48 hours after each UVA exposure and at 24 hours after the combined UVA-UVB exposure. The definitions which were employed in interpreting this study were that photosensitivity was to be assessed by exposure duration associated with the smallest dermatological response score above zero, which was defined as the minimal erythrogenic dose after the UVA-UVB exposure. The photosensitivity and/or phototoxicity reaction was taken by definition to be an increase of equal to or greater than 1 unit in what was defined as a dermatological response over baseline values after the UVA exposure.

[8] = Pharmacokinetics in the geriatric population; format: in vivo, human
Source text: This slower elimination most likely reflects the decreased renal function normally observed in the geriatric population.

[9] = test system: bacterial enzyme DNA gyrase; assay: Interference with bacterial DNA gyrase; format: biochemical
[10] = Physicochemical properties of lomefloxacin HCl
[11] = Food effect on pharmacokinetics; format: in vivo, human
Escherichia coli = assay: Activity in vitro and in clinical infections; format: cell-based
[12] = in vivo
[13] = Example 1: general pharmacokinetics in volunteers; format: in vivo, human
Experimental: In 6 fasting healthy male volunteers, approximately 95% to 98% of a single oral dose of lomefloxacin HCl was absorbed. […] Mean plasma concentration increased proportionally between 100 and 400 mg as shown below.
In 6 healthy male volunteers administered 400 mg of lomefloxacin HCl on an empty stomach q.d. for 7 days, the following mean pharmacokinetic parameter values were obtained: [formula]
The elimination half-life in 8 subjects with normal renal function was approximately 8 hours. At 24 hours post dose, subjects with normal renal function receiving single doses of 200 or 400 mg lomefloxacin HCl had mean plasma lomefloxacin HCl concentrations of 0.10 and 0.24 μg/ml, respectively. Steady-state concentrations were achieved within 48 hours of initiating therapy with once-a-day dosing.
Approximately 65% of an orally administered dose of lomefloxacin HCl was excreted in the urine as unchanged drug in patients with normal renal function. Following a 400 mg dose of lomefloxacin HCl administered q.d. for 7 days, the mean urine concentration was in excess of 300 μg/ml 4 hours post dose. The mean urine concentration exceeded 35 μg/ml for at least 24 hours after dosing.
The urinary excretion of lomefloxacin HCl was virtually complete within 72 hours after cessation of dosing, with approximately 65% of the dose being recovered as parent drug and 9% as its glucuronide metabolite.

Proteus mirabills = assay: Activity in vitro and in clinical infections; format: cell-based
Serum protein binding = format: in vitro ADME

CCn1cc(C(=O)O)c(=O)c2cc(F)c(N3CCNC(C)C3)c(F)c21 (racemic) [lomefloxacin HCl, monohydrochloride salt of (±)-1-ethyl-6,8-difluoro-1,4-dihydro-7-(3-methyl-1-piperazinyl)-4-oxo-3-quinolinecarboxylic acid]
activity against most strains (Citrobacter diversus): active against most strains
changes in rate or extent of exposure (Cmax, Tmax, t1/2 or AUC) [1]: no significant changes
activity against most strains (Haemophilus influenzae): active against most strains
activity against most strains (Enterobacter cloacae): active against most strains
activity against most strains [2]: active against most strains
severity of UVA+UVB radiation-induced photoreactions versus baseline [3]: no change
subjects with edema or blisters on the sites of radiation, UVA [3]: sixty-nine
photosensitivity rate (patients): 10%
reduction in Minimum Erythema Dose from baseline at high plasma concentration [4]: marked reduction in Minimum Erythema Dose from baseline
reduction in Minimum Erythema Dose from baseline at low plasma concentration [4]: no reduction in Minimum Erythema Dose from baseline
MBC relative to MIC ([5]; generally, except staphylococci): ≤ 2 factor
antibacterial activity ([5]; in vitro): bactericidal agent with in vitro activity against a wide range of gram-negative and gram-positive organisms
solubility ([6]; pH 5.2): 7800 µg/mL
solubility ([6]; pH 6.5): 2400 µg/mL
solubility ([6]; pH 8.12): 3030 µg/mL
correlation coefficient, plasma concentration vs delayed MEDUVA ([7]; in vivo): -0.72
slope of regression of delayed MEDUVA on plasma concentration ([7]; p<0.001): -4.99
rate of photosensitivity reactions (healthy male volunteers): 64%
increase of AUC ([8]; elderly vs younger subjects): approximately 33%
reduction of plasma clearance ([8]; elderly vs younger subjects): approximately 25%
half-life ([8]; human, in vivo, 16 elderly volunteers, single 400 mg dose): 480 min
Cmax ([8]; human, plasma, 16 elderly volunteers, single 400 mg dose, read-out: peak plasma concentration, mean): 4200 ng/mL
drug absorption in the elderly ([8]; single 400 mg dose): unaffected in the elderly
mechanism of bactericidal action [9]: interference with the activity of the bacterial enzyme DNA gyrase
solubility in alcohol [10]: practically insoluble in alcohol
solubility in water [10]: slightly soluble in water
decrease of Cmax with food [11]: 18%
decrease of extent of absorption (AUC) with food [11]: 12%
delay of Tmax with food [11]: 41%
Tmax ([11]; human, in vivo, with food): 2 h
activity against most strains (Escherichia coli): active against most strains
time of peak plasma concentration following dosing [12]: approximately two
glucuronide metabolite recovered in urine ([13]; human, in vivo): 9%
time to steady-state concentrations ([13]; human, in vivo): ≤ 48 h
time to virtually complete urinary excretion ([13]; human, in vivo): ≤ 72 h
CL renal ([13]; human, in vivo, po): 145 mL/min
Fa ([13]; human, in vivo, po): 95 to 98%
Tmax ([13]; human, in vivo, po): 0.8 to 1.4 h
half-life ([13]; human, in vivo, po): ~480 min
drug accumulation ([13]; single daily dosing, normal renal function): no drug accumulation
activity against most strains (Proteus mirabills): active against most strains
fraction unbound (Serum protein binding): ~0.9
